Literature values as cited in US20230157963A1, “SOLID ORAL BEADS OF FUNCTIONAL INGREDIENTS AND METHODS OF MAKING THE SAME” (Nulixir Inc., priority 2021, published 2023).

conditions: categorization at pH=7 unless stated otherwise; reference phases water and n-octanol

Q: For `COc1cc2c(c(OC)c1OC)-c1c(cc3c(c1OC)OCO3)CC(C)C(C)C2` (single isomer, unassigned; (-)) [(−)-schisandrin B], which “log P” value is on record?
A: Its value is roughly 4.

Q: With `COc1cc(/C=C/c2ccccc2)oc(=O)c1` [5,6-dehydrokawain] as the compound, how does the “log P” value read?
A: Its value is roughly 2.9.

Q: Which “log P” value does the source give for `COC1=CC(=O)OC(/C=C/c2ccc(OC)cc2)C1` (stereo not drawn) [5,6-dihydroyangonin] here?
A: Its value is roughly 2.5.

Q: For `CC1=C(CO)C(=O)O[C@@H]([C@@H](C)[C@H]2CC[C@H]3[C@@H]4C[C@H](Cl)[C@]5(O)[C@@H](O)C=CC(=O)[C@]5(C)[C@H]4CC[C@]23C)C1` [6a-chloro-5b-hydroxywithaferin A], which “log P” value is on record?
A: Its value is roughly 3.2.

Q: Which “log P” value does the source give for `COC1=CC(=O)O[C@@H](CCc2ccc3c(c2)OCO3)C1` [7,8-dihydromethysticin] here?
A: The value was roughly 2.2.

Q: With `COc1ccc(CCc2cc(OC)cc(=O)o2)cc1` [7,8-dihydroyangonin] as the compound, how does the “log P” value read?
A: The value was roughly 2.9.

Q: Which “log P” value does the source give for `COc1cc(/C=C\c2ccc(OC)c(O)c2)oc(=O)c1` [11-hydroxyyangonin] here?
A: The value was roughly 2.2.

Q: For `COc1cc2c(c(OC)c1OC)-c1c(cc(OC)c(OC)c1OC)C[C@](C)(O)[C@@H](C)C2` [(+)-schisandrin], which “log P” value is on record?
A: Its value is roughly 5.

Q: Which “log P” value does the source give for `COc1cc2c(c(OC)c1OC)-c1c(cc(OC)c(OC)c1OC)C[C@H](C)[C@H](C)C2` [(−)-schisandrin A] here?
A: Its value is roughly 3.6.

Q: For `COc1c2c(cc3c1-c1c(cc4c(c1OC)OCO4)C[C@H](C)[C@H](C)C3)OCO2` [(−)-schisandrin C], which “log P” value is on record?
A: Its value is roughly 3.5.

Q: With `CC(C)=C[C@@H]1CO[C@]23C[C@]4(CO2)[C@H](CC[C@@H]2[C@@]5(C)CC[C@H](O[C@@H]6OC[C@H](O)[C@H](O[C@@H]7O[C@H](CO)[C@@H](O)[C@H](O)[C@H]7O)[C@H]6O[C@@H]6O[C@@H](CO)[C@H](O)[C@H]6O)C(C)(C)[C@@H]5CC[C@]24C)[C@H]3[C@@]1(C)O` [bacopasaponin C] as the compound, how does the “log P” value read?
A: Its value is roughly 2.

Q: For `CC(C)=C[C@H]1C[C@](C)(O)[C@@H]2[C@H]3CC[C@@H]4[C@@]5(C)CC[C@H](O[C@@H]6OC[C@H](O)[C@H](O[C@@H]7O[C@H](CO)[C@@H](O)[C@H](O)[C@H]7O)[C@H]6O[C@@H]6O[C@@H](CO)[C@H](O)[C@H]6O)C(C)(C)[C@@H]5CC[C@@]4(C)[C@@]34CO[C@@]2(C4)O1` [bacopaside X], which “log P” value is on record?
A: The value was roughly 2.2.

Q: Which “log P” value does the source give for `CC(C)=C[C@H]1C[C@](C)(O)[C@H]2[C@H]3CC[C@@H]4[C@@]5(C)CC[C@H](O[C@@H]6O[C@H](CO)[C@@H](O)[C@H](O[C@@H]7O[C@H](CO)[C@@H](O)[C@H](O)[C@H]7O)[C@H]6O[C@@H]6O[C@@H](CO)[C@H](O)[C@H]6O)C(C)(C)[C@@H]5CC[C@@]4(C)[C@@]34CO[C@@]2(C4)O1` [bacoside A3] here?
A: Its value is roughly 2.1.

Q: Which “log P” value does the source give for `CC(C)=CCC[C@](C)(O[C@@H]1O[C@H](CO[C@@H]2O[C@H](CO)[C@@H](O)[C@H](O)[C@H]2O)[C@@H](O)[C@H](O)[C@H]1O)[C@H]1CC[C@]2(C)[C@@H]1[C@H](O)C[C@@H]1[C@@]3(C)CC[C@H](O[C@@H]4O[C@H](CO)[C@@H](O)[C@H](O)[C@H]4O[C@@H]4O[C@H](CO)[C@@H](O)[C@H](O)[C@H]4O)C(C)(C)[C@@H]3CC[C@]12C` [ginsenoside rb1] here?
A: Its value is roughly −1.

Q: With `CC(C)=CCC[C@](C)(O[C@@H]1O[C@H](CO)[C@@H](O)[C@H](O)[C@H]1O)[C@H]1CC[C@]2(C)[C@@H]1[C@H](O)C[C@@H]1[C@@]3(C)CC[C@H](O)C(C)(C)[C@@H]3[C@@H](O[C@@H]3O[C@H](CO)[C@@H](O)[C@H](O)[C@H]3O)C[C@]12C` [ginsenoside rg1] as the compound, how does the “log P” value read?
A: Its value is roughly 0.8.

Q: With `COc1ccc(C23C=CC(O)CC2N(C)CC3)cc1OC` (stereo not drawn) [mesembrenol] as the compound, how does the “log P” value read?
A: Its value is roughly 2.4.

Q: Which “log P” value does the source give for `COc1ccc([C@@]23C=CC(=O)C[C@@H]2N(C)CC3)cc1OC` [mesembrenone] here?
A: The value was roughly 1.3.

Q: With `COc1ccc([C@@]23CCC(=O)C[C@@H]2N(C)CC3)cc1OC` [mesembrine] as the compound, how does the “log P” value read?
A: Its value is roughly 1.5.

Q: With `COc1nc2c(c(=O)n1C)n(C)c(=O)n2C` [methylliberine] as the compound, how does the “log P” value read?
A: The value was roughly −0.083.

Q: For `CC(=O)OC1C=CC(=O)N(C(=O)CCc2ccccc2)C1` (stereo not drawn) [pipermethystine], which “log P” value is on record?
A: Its value is roughly 1.8.

Q: With `COc1cc([C@H]2Oc3cc(O)c4c(=O)c(O)c(-c5ccc(O)cc5)oc4c3O[C@@H]2CO)ccc1O` [rhodiolin] as the compound, how does the “log P” value read?
A: Its value is roughly 2.

Q: Which “log P” value does the source give for `OC[C@H]1O[C@@H](OCCc2ccc(O)cc2)[C@H](O)[C@@H](O)[C@@H]1O` [rhodosin, salidroside] here?
A: Its value is roughly −1.

Q: With `COc1cc2c(c(OC)c1OC)-c1c(cc(OC)c(OC)c1OC)C[C@](C)(O)[C@@H](C)C2` [schisandrol A] as the compound, how does the “log P” value read?
A: Its value is roughly 3.4.

Q: For `N#C[C@@]1(O[C@@H]2O[C@H](CO)[C@@H](O)[C@H](O)[C@H]2O)C=C[C@@H](O)C1` [tetraphyllin B], which “log P” value is on record?
A: Its value is roughly −2.5.

Q: Which “log P” value does the source give for (R)-kawain here?
A: Its value is roughly 2.7.

Q: For bacopaside B, which “log P” value is on record?
A: Its value is roughly 2.8.

Q: Which “log P” value does the source give for hericerin here?
A: Its value is roughly 6.4.

Q: For herinacine A, which “log P” value is on record?
A: The value was roughly 2.5.

Q: For schisandroside C, which “log P” value is on record?
A: Its value is roughly 1.6.

Q: For tortuosomine, which “log P” value is on record?
A: Its value is roughly 3.
